In paper PMC11995724, “Antibiotic target discovery by integrated phenotypic and activity-based profiling of electrophilic fragments” (Cell chemical biology, 2025):

Experiment: in vitro
Conditions: human, hek293t cells

`O=C(c1cc(=O)[nH]c2ccc([N+](=O)[O-])cc12)N1CCSSCC1` [10-B11, 4-(1,2,5-dithiazepane-5-carbonyl)-6-nitro-1,2-dihydroquinolin-2-one] gave a viability at 48 h, 25 µM of 111%.

With `Cc1cc(C(=O)CCl)c(C)n1C1CCS(=O)(=O)C1` (stereo not drawn) [10-B12, 3-[3-(2-chloroacetyl)-2,5-dimethyl-1H-pyrrol-1-yl]-1lambda6-thiolane-1,1-dione] the viability at 48 h, 25 µM was 3.75%.

`N#Cc1ccccc1N1C(=O)C=CC1=O` [10-B13, 2-(2,5-dioxo-2,5-dihydro-1H-pyrrol-1-yl)benzonitrile] gave a viability at 48 h, 25 µM of 65.2%.

Compound `Cc1ccc(-n2c(C)cc(C(=O)CCl)c2C)cc1C` [10-B14, 2-chloro-1-[1-(3,4-dimethylphenyl)-2,5-dimethyl-1H-pyrrol-3-yl]ethan-1-one] has a viability at 48 h, 25 µM of 0.754%.

`COc1cc(Cl)c(C)cc1N1C(=O)C=CC1=O` [10-B15, 1-(4-chloro-2-methoxy-5-methylphenyl)-2,5-dihydro-1H-pyrrole-2,5-dione] showed a viability at 48 h, 25 µM of 85.2%.

For `Cc1cc(C(=O)CCl)c(C)n1-c1cccc([N+](=O)[O-])c1` [10-B16, 2-chloro-1-[2,5-dimethyl-1-(3-nitrophenyl)-1H-pyrrol-3-yl]ethan-1-one], the viability at 48 h, 25 µM was 0.976%.

In the case of `Cc1c(Cl)cccc1N1C(=O)C=CC1=O` [10-B17, 1-(3-chloro-2-methylphenyl)-2,5-dihydro-1H-pyrrole-2,5-dione], the viability at 48 h, 25 µM was 130%.

In the case of `Cc1cc(C(=O)CCl)c(C)n1CCc1ccccc1` [10-B18, 2-chloro-1-[2,5-dimethyl-1-(2-phenylethyl)-1H-pyrrol-3-yl]ethan-1-one], the viability at 48 h, 25 µM was 0.0262%.

`CS(=O)(=O)N1CCc2cc(C(=O)CCl)ccc21` [10-B19, 2-chloro-1-(1-methanesulfonyl-2,3-dihydro-1H-indol-5-yl)ethan-1-one] showed a viability at 48 h, 25 µM of 7.21%.

In the case of `Cc1ccc(C(=O)C(C)Cl)cc1C` (stereo not drawn) [10-B20, 2-chloro-1-(3,4-dimethylphenyl)propan-1-one], the viability at 48 h, 25 µM was 85%.

For `O=C(NC1CC1)C1(C(=O)N2CCSSCC2)CCC1` [10-B21, N-cyclopropyl-1-(1,2,5-dithiazepane-5-carbonyl)cyclobutane-1-carboxamide], the viability at 48 h, 25 µM was 95.1%.

Compound `CCOC(=O)c1c(C)[nH]c(C(=O)C(C)Cl)c1C` (stereo not drawn) [10-B22, ethyl 5-(2-chloropropanoyl)-2,4-dimethyl-1H-pyrrole-3-carboxylate] has a viability at 48 h, 25 µM of 95.2%.

With `CCC(=O)Nc1ccc(C(=O)CCl)cc1` [10-C03, N-[4-(2-chloroacetyl)phenyl]propanamide] the viability at 48 h, 25 µM was 74.1%.

Compound `CCCc1ccc(C(=O)CCl)cc1` [10-C04, 2-chloro-1-(4-propylphenyl)ethan-1-one] has a viability at 48 h, 25 µM of 54.6%.

`NC(=O)c1coc(C(=O)CCl)c1` [10-C05, 5-(2-chloroacetyl)furan-3-carboxamide] showed a viability at 48 h, 25 µM of 60.9%.

Work on `Cc1ccc(-n2c(C)cc(C(=O)CCl)c2C)cc1F` [10-C06, 2-chloro-1-[1-(3-fluoro-4-methylphenyl)-2,5-dimethyl-1H-pyrrol-3-yl]ethan-1-one] yielded a viability at 48 h, 25 µM of 0.213%.

In the case of `C=CS(=O)(=O)Nc1ccccc1` [10-C07, N-phenylethene-1-sulfonamide], the viability at 48 h, 25 µM was 30.8%.

`Cc1cc(C)c(C(=O)CCl)c(C)c1` [10-C08, 2-chloro-1-(2,4,6-trimethylphenyl)ethan-1-one] gave a viability at 48 h, 25 µM of 97.8%.

In the case of `O=C(CCl)c1cn(-c2cccc(C(F)(F)F)c2)nn1` [10-C09, 2-chloro-1-{1-[3-(trifluoromethyl)phenyl]-1H-1,2,3-triazol-4-yl}ethan-1-one], the viability at 48 h, 25 µM was 2.55%.

`CCOC(=O)c1c(C)[nH]c(C)c1C(=O)CCl` [10-C10, ethyl 4-(2-chloroacetyl)-2,5-dimethyl-1H-pyrrole-3-carboxylate] gave a viability at 48 h, 25 µM of 101%.

In the case of `O=C(CCl)Cc1cccc(F)c1` [10-C11, 1-chloro-3-(3-fluorophenyl)propan-2-one], the viability at 48 h, 25 µM was 38.4%.

`CCc1cccc2c(C(=O)CCl)c[nH]c12` [10-C12, 2-chloro-1-(7-ethyl-1H-indol-3-yl)ethan-1-one] gave a viability at 48 h, 25 µM of 0.148%.

Work on `O=C(CCl)c1ccc(O)cc1O` [10-C14, 2-chloro-1-(2,4-dihydroxyphenyl)ethan-1-one] yielded a viability at 48 h, 25 µM of 97.4%.

Work on `Cn1ccnc1C(=O)CCl` [10-C15, 2-chloro-1-(1-methyl-1H-imidazol-2-yl)ethan-1-one] yielded a viability at 48 h, 25 µM of 67.6%.

For `Cc1cc(C(=O)CCl)c(C)n1-c1ccccn1` [10-C16, 2-chloro-1-[2,5-dimethyl-1-(pyridin-2-yl)-1H-pyrrol-3-yl]ethan-1-one], the viability at 48 h, 25 µM was 79.6%.

Compound `O=C(CCl)C1CCC2(CC1)CC2` [10-C17, 2-chloro-1-{spiro[2.5]octan-6-yl}ethan-1-one] has a viability at 48 h, 25 µM of 60.1%.

For `Cc1cc(-n2c(C)cc(C(=O)CCl)c2C)no1` [10-C18, 2-chloro-1-[2,5-dimethyl-1-(5-methyl-1,2-oxazol-3-yl)-1H-pyrrol-3-yl]ethan-1-one], the viability at 48 h, 25 µM was 0.308%.

Compound `O=C(CCl)Cc1ccc(C(F)(F)F)cc1` [10-C19, 1-chloro-3-[4-(trifluoromethyl)phenyl]propan-2-one] has a viability at 48 h, 25 µM of 1.02%.

With `N#CC(C(=O)CCl)=C(c1ccc(F)cc1)N1CCOCC1` [10-C20, 4-chloro-2-[(4-fluorophenyl)(morpholin-4-yl)methylidene]-3-oxobutanenitrile] the viability at 48 h, 25 µM was 53.6%.

For `O=C1C=CC(=O)N1CCc1ccc(F)cc1` [10-C21, 1-[2-(4-fluorophenyl)ethyl]-2,5-dihydro-1H-pyrrole-2,5-dione], the viability at 48 h, 25 µM was 21.9%.

Work on `CCC(=O)N1CCc2cc(C(=O)CCl)ccc21` [10-C22, 1-[5-(2-chloroacetyl)-2,3-dihydro-1H-indol-1-yl]propan-1-one] yielded a viability at 48 h, 25 µM of 90.5%.

`Cc1cc(C(=O)CCl)c(C)n1Cc1cccs1` [10-D03, 2-chloro-1-{2,5-dimethyl-1-[(thiophen-2-yl)methyl]-1H-pyrrol-3-yl}ethan-1-one] gave a viability at 48 h, 25 µM of 104%.

`CC(C)C(=O)Nc1ccc(C(=O)CCl)cc1` [10-D04, N-[4-(2-chloroacetyl)phenyl]-2-methylpropanamide] showed a viability at 48 h, 25 µM of 30.8%.

In the case of `COC(=O)c1ccc2[nH]cc(C(=O)CCl)c2c1` [10-D05, methyl 3-(2-chloroacetyl)-1H-indole-5-carboxylate], the viability at 48 h, 25 µM was 3.01%.

`CS(=O)(=O)NCCc1ccc(C(=O)CCl)cc1` [10-D06, N-{2-[4-(2-chloroacetyl)phenyl]ethyl}methanesulfonamide] gave a viability at 48 h, 25 µM of 18.3%.

Compound `O=C1C=CC(=O)N1c1ccc2ccccc2c1` [10-D07, 1-(naphthalen-2-yl)-2,5-dihydro-1H-pyrrole-2,5-dione] has a viability at 48 h, 25 µM of 74.4%.

`Cn1ccc(C(=O)CCl)c1` [10-D08, 2-chloro-1-(1-methyl-1H-pyrrol-3-yl)ethan-1-one] showed a viability at 48 h, 25 µM of 1.8%.

For `CC(=O)Nc1cccc(N2C(=O)C=CC2=O)c1` [10-D09, N-[3-(2,5-dioxo-2,5-dihydro-1H-pyrrol-1-yl)phenyl]acetamide], the viability at 48 h, 25 µM was 104%.

For `COc1ccc(C(=O)CCl)cc1Cl` [10-D10, 2-chloro-1-(3-chloro-4-methoxyphenyl)ethan-1-one], the viability at 48 h, 25 µM was 1.84%.

In the case of `COc1ccc(S(=O)(=O)N2CCSSCC2)cc1C` [10-D11, 5-(4-methoxy-3-methylbenzenesulfonyl)-1,2,5-dithiazepane], the viability at 48 h, 25 µM was 105%.

`Cc1csc(C(C#N)C(=O)CCl)n1` (stereo not drawn) [10-D12, 4-chloro-2-(4-methyl-1,3-thiazol-2-yl)-3-oxobutanenitrile] showed a viability at 48 h, 25 µM of 6.6%.

With `COCCn1c(C)cc(C(=O)CCl)c1C` [10-D13, 2-chloro-1-[1-(2-methoxyethyl)-2,5-dimethyl-1H-pyrrol-3-yl]ethan-1-one] the viability at 48 h, 25 µM was 110%.

Work on `CC(Cl)C(=O)c1ccc(C(C)(C)C)cc1` (stereo not drawn) [10-D14, 1-(4-tert-butylphenyl)-2-chloropropan-1-one] yielded a viability at 48 h, 25 µM of 77.6%.

In the case of `O=C1C=CC(=O)N1c1ccc(F)c(Cl)c1` [10-D15, 1-(3-chloro-4-fluorophenyl)-2,5-dihydro-1H-pyrrole-2,5-dione], the viability at 48 h, 25 µM was 79.2%.

`O=C(CCl)c1cc(Cl)sc1Cl` [10-D16, 2-chloro-1-(2,5-dichlorothiophen-3-yl)ethan-1-one] showed a viability at 48 h, 25 µM of 1.77%.

Compound `O=C1C=CC(=O)N1c1ccccc1F` [10-D17, 1-(2-fluorophenyl)-2,5-dihydro-1H-pyrrole-2,5-dione] has a viability at 48 h, 25 µM of 90.3%.

For `Cc1cc(C(=O)CCl)c(C)n1-c1ccc(Cl)c(Cl)c1` [10-D18, 2-chloro-1-[1-(3,4-dichlorophenyl)-2,5-dimethyl-1H-pyrrol-3-yl]ethan-1-one], the viability at 48 h, 25 µM was 0.282%.

With `CS(=O)(=O)Nc1ccc(C(=O)CCl)cc1` [10-D19, N-[4-(2-chloroacetyl)phenyl]methanesulfonamide] the viability at 48 h, 25 µM was 76.6%.

Compound `O=C(CCl)Cc1c(F)cccc1Cl` [10-D20, 1-chloro-3-(2-chloro-6-fluorophenyl)propan-2-one] has a viability at 48 h, 25 µM of 37%.

In the case of `O=C(Nc1ccc(F)cc1)N1CCSSCC1` [10-D21, N-(4-fluorophenyl)-1,2,5-dithiazepane-5-carboxamide], the viability at 48 h, 25 µM was 84%.

In the case of `COC(=O)c1c(C)[nH]c(C(=O)C(C)Cl)c1C` (stereo not drawn) [10-D22, methyl 5-(2-chloropropanoyl)-2,4-dimethyl-1H-pyrrole-3-carboxylate], the viability at 48 h, 25 µM was 83.7%.

For `CC(C)Oc1ccc2[nH]cc(C(=O)CCl)c2c1` [10-E03, 2-chloro-1-[5-(propan-2-yloxy)-1H-indol-3-yl]ethan-1-one], the viability at 48 h, 25 µM was 0.825%.

In the case of `Cc1cc(C)cc(-n2c(C)cc(C(=O)CCl)c2C)c1` [10-E04, 2-chloro-1-[1-(3,5-dimethylphenyl)-2,5-dimethyl-1H-pyrrol-3-yl]ethan-1-one], the viability at 48 h, 25 µM was 19.1%.

Compound `O=C(CCl)c1c(-c2ccccc2)[nH]c2ccccc12` [10-E05, 2-chloro-1-(2-phenyl-1H-indol-3-yl)ethan-1-one] has a viability at 48 h, 25 µM of 14.1%.

With `Cc1cc(C(=O)C(C)Cl)c(C)n1Cc1ccco1` (stereo not drawn) [10-E06, 2-chloro-1-{1-[(furan-2-yl)methyl]-2,5-dimethyl-1H-pyrrol-3-yl}propan-1-one] the viability at 48 h, 25 µM was 105%.

For `CSc1ccc(C(=O)CCl)cc1` [10-E07, 2-chloro-1-[4-(methylsulfanyl)phenyl]ethan-1-one], the viability at 48 h, 25 µM was 1.88%.

In the case of `CC(C)C(=O)Nc1ccc(C(=O)C(C)Cl)cc1` (stereo not drawn) [10-E08, N-[4-(2-chloropropanoyl)phenyl]-2-methylpropanamide], the viability at 48 h, 25 µM was 100%.
